Tested on: P12-Ichikawa
Assay: cell viability relative to DMSO control; higher = less cytotoxic
Settings: 48 h
Method in brief: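 NOMO1 or SEM (500 cells/well) or P12-Ichikawa (1000 cells/well) leukemia cells were adapted for at least four passages in each medium. They were seeded in 1536-well plates (5 μl) and pin-dosed with library compounds in DMSO over an 11-point threefold series, 47 μM to 0.79 nM. CellTiter-Glo One luminescence was read after 48 h at 37°C. Viability is the per-plate percentage relative to DMSO wells, with cell-free wells as background.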

[1] = HPLM + 10% dialyzed FBS, 0.000781 µM
[2] = HPLM + 10% dialyzed FBS, 0.00234 µM
[3] = HPLM + 10% dialyzed FBS, 0.00702 µM
[4] = HPLM + 10% dialyzed FBS, 0.0211 µM
[5] = HPLM + 10% dialyzed FBS, 0.0632 µM
[6] = HPLM + 10% dialyzed FBS, 0.19 µM
[7] = HPLM + 10% dialyzed FBS, 0.569 µM
[8] = HPLM + 10% dialyzed FBS, 1.71 µM
[9] = HPLM + 10% dialyzed FBS, 5.12 µM
[10] = HPLM + 10% dialyzed FBS, 15.4 µM
[11] = HPLM + 10% dialyzed FBS, 46.1 µM
[12] = RPMI 5 mM glucose + 10% FBS, 0.000781 µM
[13] = RPMI 5 mM glucose + 10% FBS, 0.00234 µM
[14] = RPMI 5 mM glucose + 10% FBS, 0.00702 µM
[15] = RPMI 5 mM glucose + 10% FBS, 0.0211 µM
[16] = RPMI 5 mM glucose + 10% FBS, 0.0632 µM
[17] = RPMI 5 mM glucose + 10% FBS, 0.19 µM
[18] = RPMI 5 mM glucose + 10% FBS, 0.569 µM
[19] = RPMI 5 mM glucose + 10% FBS, 1.71 µM
[20] = RPMI 5 mM glucose + 10% FBS, 5.12 µM
[21] = RPMI 5 mM glucose + 10% FBS, 15.4 µM
[22] = RPMI 5 mM glucose + 10% FBS, 46.1 µM
[23] = RPMI 5 mM glucose + 10% dialyzed FBS, 0.000781 µM
[24] = RPMI 5 mM glucose + 10% dialyzed FBS, 0.00234 µM
[25] = RPMI 5 mM glucose + 10% dialyzed FBS, 0.00702 µM
[26] = RPMI 5 mM glucose + 10% dialyzed FBS, 0.0211 µM
[27] = RPMI 5 mM glucose + 10% dialyzed FBS, 0.0632 µM
[28] = RPMI 5 mM glucose + 10% dialyzed FBS, 0.19 µM
[29] = RPMI 5 mM glucose + 10% dialyzed FBS, 0.569 µM
[30] = RPMI 5 mM glucose + 10% dialyzed FBS, 1.71 µM
[31] = RPMI 5 mM glucose + 10% dialyzed FBS, 5.12 µM
[32] = RPMI 5 mM glucose + 10% dialyzed FBS, 15.4 µM
[33] = RPMI 5 mM glucose + 10% dialyzed FBS, 46.1 µM

Row | SMILES | cell viability [1] [%] | cell viability [2] [%] | cell viability [3] [%] | cell viability [4] [%] | cell viability [5] [%] | cell viability [6] [%] | cell viability [7] [%] | cell viability [8] [%] | cell viability [9] [%] | cell viability [10] [%] | cell viability [11] [%] | cell viability [12] [%] | cell viability [13] [%] | cell viability [14] [%] | cell viability [15] [%] | cell viability [16] [%] | cell viability [17] [%] | cell viability [18] [%] | cell viability [19] [%] | cell viability [20] [%] | cell viability [21] [%] | cell viability [22] [%] | cell viability [23] [%] | cell viability [24] [%] | cell viability [25] [%] | cell viability [26] [%] | cell viability [27] [%] | cell viability [28] [%] | cell viability [29] [%] | cell viability [30] [%] | cell viability [31] [%] | cell viability [32] [%] | cell viability [33] [%]
1 | C[N]1N=CC2=C1C=C(C(=C2)OC3=CC=C(NC(=O)\C4=C\C=C(\C)N(C4=O)C5=CC=C(F)C=C5)C=C3F)C6=C[NH]N=C6 | 99.5 | 113 | 117 | 114 | 114 | 127 | 123 | 104 | 78.1 | 12 | 8.97 | 104 | 109 | 115 | 117 | 127 | 130 | 130 | 128 | 78.9 | 16.1 | 10.5 | 119 | 123 | 130 | 125 | 124 | 138 | 129 | 128 | 90.2 | 26.6 | 16.3
2 | CCCC(CCC)C(=O)[O-] | 87.4 | 96.6 | 103 | 102 | 106 | 104 | 102 | 103 | 109 | 105 | 101 | 88.6 | 103 | 105 | 110 | 115 | 119 | 105 | 108 | 105 | 105 | 94.8 | 94.2 | 102 | 102 | 114 | 112 | 107 | 104 | 101 | 107 | 106 | 96.5
3 | O=C(C[C@@H]1C/C=C\CCC(=O)O[C@H](c2ccccc2)CNC1=O)NCc1ccc(Cl)cc1 | 99.1 | 110 | 79.7 | 117 | 126 | 122 | 116 | 119 | 123 | 116 | 117 | 95.1 | 117 | 70 | 112 | 115 | 118 | 128 | 128 | 115 | 119 | 123 | 102 | 115 | 79.3 | 120 | 120 | 120 | 123 | 119 | 114 | 120 | 113

Source: the supplement of paper PMC11451515
